Results from ChEMBL document CHEMBL1201862, “PubChem BioAssay data set” (2004).
Several values for one entry are separate records, joined by “and”; a condition that tells them apart may be missing. Equal values may be shown once.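 Following 48 hours of exposure in 96-well plates, responses at five concentrations were used to interpolate endpoints linearly. Abbreviation: GI50, concentration required for 50% inhibition of growth.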 Activity calls are given as the source filed them. Rule as the data show it: active = GI50 up to about 1.1 µM and inactive = higher.

Experiments:
Experiment in all cases: DTP human tumour cell line panel, 48 h
OVCAR-4 = test system: OVCAR-4
HCC 2998 = test system: HCC 2998
SF-539 = test system: SF-539
SF-268 = test system: SF-268
UO-31 = test system: UO-31
RPMI-8226 = test system: RPMI-8226
NCI-H226 = test system: NCI-H226
SNB-75 = test system: SNB-75
TK-10 = test system: TK-10
A498 = test system: A498
EKVX = test system: EKVX
786-0 = test system: 786-0
HOP-62 = test system: HOP-62
HL-60 = test system: HL-60
CCRF-CEM = test system: CCRF-CEM
K562 = test system: K562

SMILES	GI50 (OVCAR-4)	GI50 (HCC 2998)	GI50 (SF-539)	GI50 (SF-268)	GI50 (UO-31)	GI50 (RPMI-8226)	GI50 (NCI-H226)	GI50 (SNB-75)	GI50 (TK-10)	GI50 (A498)	GI50 (EKVX)	GI50 (786-0)	GI50 (HOP-62)	GI50 (HL-60)	GI50 (CCRF-CEM)	GI50 (K562)
CC1=NN(C(=O)CC(=O)Nc2cccc(Cl)c2)C(=O)C1/N=N/c1ccc(S(N)(=O)=O)cc1 (stereo not given)	> 100 µM (inactive)	> 100 µM (inactive)	> 100 µM (inactive)	> 100 µM (inactive)	> 100 µM (inactive)	> 100 µM (inactive)	> 100 µM (inactive)	> 100 µM (inactive)	> 100 µM (inactive)	> 100 µM (inactive)	> 100 µM (inactive)	> 100 µM (inactive)	> 100 µM (inactive)			
C[Si](C)(C)C#C[I+]c1ccccc1	36.2 µM (inactive)	> 100 µM (inactive)	28.9 µM (inactive)	45.9 µM (inactive)	67 µM (inactive)		> 100 µM (inactive)	40.4 µM (inactive)	> 100 µM (inactive)	> 100 µM (inactive)	52.1 µM (inactive)	45.6 µM (inactive)	> 100 µM (inactive)	22.5 µM (inactive)	15.1 µM (inactive)	41.1 µM (inactive)
O/N=C1/C(=C/c2ccc(Cl)cc2)CCCC1C(NO)c1ccc(Cl)cc1 (stereo not given)	15.6 µM (inactive)	15.5 µM (inactive)	25.2 µM (inactive)	15.9 µM (inactive)	16.6 µM (inactive)	20.9 µM (inactive)		12.6 µM (inactive)	31.7 µM (inactive)	18.1 µM (inactive)	30.1 µM (inactive)	20.7 µM (inactive)	22.8 µM (inactive)	18.5 µM (inactive)	19.1 µM (inactive)	24.4 µM (inactive)
COc1ccc(OC(C)C(=O)O)c2c1CCCC2=O (stereo not given)	> 100 µM (inactive)	> 100 µM (inactive)	> 100 µM (inactive)	> 100 µM (inactive)	> 100 µM (inactive)	> 100 µM (inactive)	> 100 µM (inactive)	> 100 µM (inactive)	> 100 µM (inactive)	> 100 µM (inactive)	> 100 µM (inactive)	> 100 µM (inactive)	> 100 µM (inactive)	> 100 µM (inactive)	> 100 µM (inactive)	> 100 µM (inactive)
C/C(=N/OCCC(=O)O)C1CC1	> 100 µM (inactive)	> 100 µM (inactive)	> 100 µM (inactive)	> 100 µM (inactive)	> 100 µM (inactive)	> 100 µM (inactive)	> 100 µM (inactive)	> 100 µM (inactive)	> 100 µM (inactive)		> 100 µM (inactive)	> 100 µM (inactive)	> 100 µM (inactive)	> 100 µM (inactive)	> 100 µM (inactive)	> 100 µM (inactive)
CC(C)=CCSC1CC2C(CC1(C)O)C2(C)C (stereo not given)	19.7 µM (inactive) and 15.8 µM (inactive)	1.83 µM (inactive) and 2.82 µM (inactive)	18 µM (inactive) and 15.6 µM (inactive)	18.3 µM (inactive) and 16.3 µM (inactive)		17.5 µM (inactive) and 21.9 µM (inactive)	13.7 µM (inactive) and 14.4 µM (inactive)	15.8 µM (inactive) and 11.5 µM (inactive)	18.1 µM (inactive) and 16.9 µM (inactive)	21.6 µM (inactive) and 17.3 µM (inactive)	12.9 µM (inactive) and 16.1 µM (inactive)	15.9 µM (inactive) and 13.1 µM (inactive)	16.4 µM (inactive) and 16.6 µM (inactive)			
COC1C(OC(=S)Nc2ccccc2)c2ccccc2N1C(C)=O (stereo not given)	75.9 µM (inactive)	> 100 µM (inactive)	> 100 µM (inactive)		98.4 µM (inactive)	50.4 µM (inactive)		> 100 µM (inactive)		> 100 µM (inactive)	> 100 µM (inactive)	> 100 µM (inactive)	> 100 µM (inactive)	72.8 µM (inactive)	64.4 µM (inactive)	> 100 µM (inactive)
Cc1ccc(-c2cc(=S)n(-c3ccccc3)c3[nH]c(=S)n(-c4ccccc4)c(=N)c23)cc1	> 100 µM (inactive)	> 100 µM (inactive)	> 100 µM (inactive)	> 100 µM (inactive)	> 100 µM (inactive)	> 100 µM (inactive)	> 100 µM (inactive)	> 100 µM (inactive)	> 100 µM (inactive)			> 100 µM (inactive)	> 100 µM (inactive)	> 100 µM (inactive)	> 100 µM (inactive)	> 100 µM (inactive)
COc1ccc2c(c1)[n+]([O-])c(-c1ccccc1Cl)c(N)[n+]2[O-]	> 100 µM (inactive)		> 100 µM (inactive)	74.3 µM (inactive)	99.8 µM (inactive)	88.1 µM (inactive)	> 100 µM (inactive)	75 µM (inactive)		> 100 µM (inactive)	> 100 µM (inactive)	> 100 µM (inactive)	> 100 µM (inactive)	70.3 µM (inactive)		99.1 µM (inactive)
COc1cc(/C=C2\C(=O)N(C(=O)c3ccc(NC(C)=O)cc3)N=C2C)ccc1O	> 100 µM (inactive)	> 100 µM (inactive)	> 100 µM (inactive)	> 100 µM (inactive)	> 100 µM (inactive)	> 100 µM (inactive)	> 100 µM (inactive)	> 100 µM (inactive)	> 100 µM (inactive)		> 100 µM (inactive)	> 100 µM (inactive)	> 100 µM (inactive)	> 100 µM (inactive)	> 100 µM (inactive)	> 100 µM (inactive)
CCc1ccccc1NC(=O)C1=C(C)NC(C)=C(C(=O)Nc2ccccc2CC)C1c1ccc(NC(C)=O)cc1	35.1 µM (inactive)	19.5 µM (inactive)	25.9 µM (inactive)	38.1 µM (inactive)	35.2 µM (inactive)	17 µM (inactive)	29.4 µM (inactive)	21.4 µM (inactive)	> 100 µM (inactive)		60.7 µM (inactive)	37.8 µM (inactive)	36.7 µM (inactive)	14.3 µM (inactive)	18.7 µM (inactive)	23.1 µM (inactive)
OCC1C(/C=C/c2ccoc2)ON2CCCC12 (stereo not given)	> 100 µM (inactive)	> 100 µM (inactive)	> 100 µM (inactive)	> 100 µM (inactive)	> 100 µM (inactive)		> 100 µM (inactive)	> 100 µM (inactive)	> 100 µM (inactive)		> 100 µM (inactive)	> 100 µM (inactive)	> 100 µM (inactive)	> 100 µM (inactive)		
CC(=O)NC1C(OCc2ccccc2)OC(COC(=O)CCCCCNc2ccc([N+](=O)[O-])c3[nH]c4ccc(O)cc4c(=O)c23)C(O)C1OC(C)C(=O)N[C@@H](C)C(=O)N[C@H](CCC(=O)OCc1ccccc1)C(N)=O (stereo not given in full)	3.34 µM (inactive)	3.25 µM (inactive)	3.4 µM (inactive)	2.31 µM (inactive)		0.506 µM (active)	4.9 µM (inactive)	4.13 µM (inactive)	3.06 µM (inactive)	2.1 µM (inactive)	3.94 µM (inactive)	1.86 µM (inactive)	5.9 µM (inactive)	2.77 µM (inactive)	3.06 µM (inactive)	1.49 µM (inactive)
Cc1nc(Nc2ccc(Cl)cc2)sc1C(=O)NNC(=O)C(=O)NN	18.1 µM (inactive)	20 µM (inactive)	26.1 µM (inactive)	27.8 µM (inactive)	16.6 µM (inactive)		20.3 µM (inactive)	23.7 µM (inactive)	29.5 µM (inactive)	15.7 µM (inactive)	10.4 µM (inactive)	17.3 µM (inactive)	21.5 µM (inactive)	17.4 µM (inactive)	22.2 µM (inactive)	25.1 µM (inactive)
Cc1c(C(=O)/C=C/c2ccc(N(C)C)cc2)c(=O)n(-c2ccccc2)n1C		> 100 µM (inactive)	> 100 µM (inactive)	> 100 µM (inactive)	> 100 µM (inactive)		> 100 µM (inactive)		> 100 µM (inactive)	> 100 µM (inactive)	> 100 µM (inactive)	> 100 µM (inactive)			> 100 µM (inactive)	
O=[N+]([O-])c1cccc(C2N3CCCCC3[C@@H]3c4[nH]c5ccccc5c4CCN23)c1 (stereo not given in full)	16 µM (inactive)		14.8 µM (inactive)	12 µM (inactive)	11.9 µM (inactive)	10.9 µM (inactive)			14.4 µM (inactive)	15 µM (inactive)	23.1 µM (inactive)	16.9 µM (inactive)	16.3 µM (inactive)	10.1 µM (inactive)	13.2 µM (inactive)	3.88 µM (inactive)
COc1cc(/C=C/C(=O)c2cccc3ccccc23)cc(OC)c1OC	6.41 µM (inactive)	15 µM (inactive)		4.74 µM (inactive)	16.8 µM (inactive)		15.3 µM (inactive)	10.3 µM (inactive)	14.2 µM (inactive)	2.82 µM (inactive)	15 µM (inactive)	4.49 µM (inactive)	6.82 µM (inactive)	1.72 µM (inactive)	2.56 µM (inactive)	3.02 µM (inactive)
c1ccc(-c2nnc(-c3nn(-c4ccccc4)c4nc5ccccc5nc34)o2)cc1	> 100 µM (inactive)	> 100 µM (inactive)	68.4 µM (inactive)	> 100 µM (inactive)	37.2 µM (inactive)	39.1 µM (inactive)	18.2 µM (inactive)	> 100 µM (inactive)	> 100 µM (inactive)		> 100 µM (inactive)	46.9 µM (inactive)	> 100 µM (inactive)	20.6 µM (inactive)	18.6 µM (inactive)	31 µM (inactive)
COC1(OC)C2(Cl)C3=CCCC=C3C1(Cl)C(Cl)=C2Cl	18.2 µM (inactive)	29.2 µM (inactive)	29 µM (inactive)	27.4 µM (inactive)	21.7 µM (inactive)	12.1 µM (inactive)	45.7 µM (inactive)	23.3 µM (inactive)	> 100 µM (inactive)		16.1 µM (inactive)	27.4 µM (inactive)	26.3 µM (inactive)	13.9 µM (inactive)	19.8 µM (inactive)	> 10 µM (inactive)
